Experimental data from PMC5841303, “In silico screening for human norovirus antivirals reveals a novel non-nucleoside inhibitor of the viral polymerase” (Scientific Reports, 2018).

Assays:
MNV RdRp = target: T1, MNV RdRp (Norovirus, UniProt Q80J95); test: Fluorescent RdRp activity assay, MNV RdRp; format: biochemical, murine norovirus; details: 0.1–100 µM; read-out: IC50 against MNV RdRp
T1 construct: made in house
Excerpt: The antiviral activity of the four compounds (11, 13, 42a and 54) were examined for inhibition of RNA polymerases from other viruses spanning three genera of the Caliciviridae family, including Norovirus (human norovirus and MNV), Lagovirus (rabbit haemorrhagic disease virus [RHDV]) and Sapovirus (human sapovirus). […] The protein sequence of the examined calicivirus polymerases has an identity range between 30.2–61.4%, and therefore the broad-spectrum activity of these compounds could be attributed to a common, highly-conserved binding pocket across the RdRps, as has been previously reported with broad-spectrum activity of other site-B binding NNIs[16]. Moreover, the ability of each compound to inhibit the different RdRps in a similar range could be further confirmation of targeting a well-conserved binding site of the Caliciviridae family.
Recombinant calicivirus RdRps (GenBank accession numbers) norovirus GII.Pe/GII.4 Sydney 2012 (KT239579), MNV GV CW1 (DQ285629), RHDV Czech V351 (KF594473.1), and SaV GI.1 Mc114 (AY237422) were expressed and purified as described previously[60],[61]. […]
Fluorescent RdRp activity assays were carried out as previously described[14],[62]. Briefly, RdRp activity was quantified by monitoring the formation of double-stranded RNA (dsRNA) from a single stranded homopolymeric template, poly(C) (Sigma Aldrich, St Louis, MO, USA), using the fluorescent dye PicoGreen (Life Technologies, Carlsbad, CA, USA). […] RdRps were incubated for 10 mins at 30 °C in the presence of the test compounds or the compound vehicle DMSO (0.5% vol/vol) before addition into the reaction mixture, which was then allowed to run 15 min at 30 °C then terminated with 10 mM EDTA, followed by PicoGreen staining and dsRNA quantitation. […] In cases where fluorescent enhancement was recorded for a compound instead of inhibition, a secondary gel-based polymerase activity assay was used as a counter-screen as described below, to exclude the possibility of RdRp activity enhancement (Supplementary Fig. S1). […] Antagonism was calculated using Compusyn software V1.0[59]. […]

MNV = MNV plaque reduction assay in cell culture; format: cell-based, murine norovirus
Method: (§1) As mentioned above, the only robust cellular assay available for the evaluation of potential norovirus inhibitors is the closely related MNV assay. […] Consequently, 54 was further assessed to determine the IC50 value against MNV RdRp activity using an in vitro fluorescent assay. […] 54 was then assessed for cytotoxicity against RAW264.7 mouse macrophage cells using a cell viability assay. […] Using the plaque reduction assay, the inhibitory effects of 54 (0.5–50 µM) were examined against MNV plaque formation in cell culture. […] Compound solubility and its cell-membrane permeability properties could be further improved with structure-activity relationship enhancement of the 54 scaffold to facilitate cellular uptake, and therefore to increase antiviral efficacy. Work on this aspect is ongoing, and it will be reported in due course.
(§2) MNV-1 (CW1) culture assays were performed as previously described. Replication was examined using plaque assays[58],[64],[65]. Cytotoxicity was examined using a CellTitre Blue (Promega, Madison, WI, USA) viability assay as described previously.

[1] = CellTitre Blue cell viability (cytotoxicity) assay; format: cell-based; details: mouse, RAW264.7 mouse macrophage cells, 0.5–100 µM, read-out: CC50 (half maximal cytotoxic concentration)
Method: as §1, §2

R419A norovirus RdRp = target: T2, R419A norovirus RdRp (Norovirus GII.4 (Norwalk virus, human norovirus), UniProt K4L8Z7, R1608A); test: Fluorescent RdRp assay, R419A mutant RdRp; format: biochemical; details: 0.1–100 µM
T2 sequence (K4L8Z7 1190-1699 R1608A): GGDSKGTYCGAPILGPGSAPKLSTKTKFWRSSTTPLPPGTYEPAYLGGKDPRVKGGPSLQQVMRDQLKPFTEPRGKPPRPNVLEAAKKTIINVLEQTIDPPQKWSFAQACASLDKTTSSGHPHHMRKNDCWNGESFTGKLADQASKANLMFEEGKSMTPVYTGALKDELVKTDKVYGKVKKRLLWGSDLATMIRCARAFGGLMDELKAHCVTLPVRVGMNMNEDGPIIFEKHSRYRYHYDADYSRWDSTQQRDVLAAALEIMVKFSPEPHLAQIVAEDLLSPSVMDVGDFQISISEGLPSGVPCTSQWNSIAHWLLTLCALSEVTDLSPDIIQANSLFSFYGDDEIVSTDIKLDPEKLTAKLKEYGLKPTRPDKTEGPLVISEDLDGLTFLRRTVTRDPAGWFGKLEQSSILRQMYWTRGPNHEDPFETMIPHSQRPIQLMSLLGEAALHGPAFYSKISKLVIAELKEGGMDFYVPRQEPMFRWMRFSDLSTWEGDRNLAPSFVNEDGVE
Excerpt: Given the evidence of 54 being a site-B binding NNI, residues Q414 and R419 were mutated to alanine. These residues were previously shown by our research group and others to be critical for human norovirus RdRp site-B binding NNIs, and can create resistance to the drug through their mutagenesis[16],[17],[39]. After the mutant RdRps’ transcriptional activity was confirmed in a fluorescent RdRp assay (Q414A: 54%, R419A: 34% of wild-type activity, respectively), dose-response curves for 54 (0.1–100 µM) were produced to compare the IC50 values between the wild-type RdRp and the two mutant RdRps, Q414A and R419A (Fig. 13B). […]
Fluorescent RdRp activity assays were carried out as previously described[14],[62]. Briefly, RdRp activity was quantified by monitoring the formation of double-stranded RNA (dsRNA) from a single stranded homopolymeric template, poly(C) (Sigma Aldrich, St Louis, MO, USA), using the fluorescent dye PicoGreen (Life Technologies, Carlsbad, CA, USA). […] RdRps were incubated for 10 mins at 30 °C in the presence of the test compounds or the compound vehicle DMSO (0.5% vol/vol) before addition into the reaction mixture, which was then allowed to run 15 min at 30 °C then terminated with 10 mM EDTA, followed by PicoGreen staining and dsRNA quantitation. […] Antagonism was calculated using Compusyn software V1.0[59]. […]

O=C1NN(c2ccccc2)C(=O)/C1=C/c1ccc(-c2ccc(S(=O)(=O)Nc3ccccc3)cc2)o1 [Compound 54]
IC50 (MNV RdRp): 12.1 µM | cytotoxicity seen in plaque assay (MNV; 50 µM, RAW264.7 cells): RAW264.7 cells thinning | EC50 (MNV; 0.5–50 µM, read-out: EC50 against MNV in cell culture (plaque reduction)): > 50 µM | effect on plaque numbers (MNV; up to 25 µM): no appreciable effect | CC50 [1]: 62.8 µM | IC50 (R419A norovirus RdRp): 10.2 µM
